Results from patent US12486269B2 (Aconcagua Bio, Inc., priority 2024, dated 2025).

Legend:
[1] = molecular target: T1, COS-7/AMY3 (human calcitonin receptor (CTR) and RAMP3) (Homo sapiens, UniProt O60896+P30988); assay: Amylin Receptor cAMP Assay II; assay type: cell-based; settings: values marked **: Amylin Receptor cAMP Assay II; COS-7/AMY3 cells, cAMP dynamic 2 kit, 30 min; read-out: Amylin Receptor cAMP Stimulation Activity: EC50
T1 construct: expressed in transfected cells; host or cells: COS-7
How it was run: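 Agonist-induced cAMP was quantified by HTRF ratio at 665/615 nm and expressed as % of the window from vehicle to MAX control. Stimulation lasted 30 min at 37 °C in HBSS/20 mM HEPES/0.5 mM IBMX/0.1% casein, using stable human CTR+RAMP3 (AMY3) COS-7 cells at 2000 per well.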

[2] = molecular target: T2, human calcitonin receptor (CTR) (Homo sapiens, UniProt P30988); assay: Calcitonin Receptor (CTR) cAMP Assay; assay type: cell-based; settings: COS7-human CTR Clone #2 stable cell line, cAMP dynamic 2 kit, 30 min; read-out: Calcitonin Receptor cAMP Stimulation Activity: EC50
T2 construct: expressed in transfected cells; host or cells: COS-7 (COS7-human CTR Clone #2)
T2 sequence (P30988 25-474): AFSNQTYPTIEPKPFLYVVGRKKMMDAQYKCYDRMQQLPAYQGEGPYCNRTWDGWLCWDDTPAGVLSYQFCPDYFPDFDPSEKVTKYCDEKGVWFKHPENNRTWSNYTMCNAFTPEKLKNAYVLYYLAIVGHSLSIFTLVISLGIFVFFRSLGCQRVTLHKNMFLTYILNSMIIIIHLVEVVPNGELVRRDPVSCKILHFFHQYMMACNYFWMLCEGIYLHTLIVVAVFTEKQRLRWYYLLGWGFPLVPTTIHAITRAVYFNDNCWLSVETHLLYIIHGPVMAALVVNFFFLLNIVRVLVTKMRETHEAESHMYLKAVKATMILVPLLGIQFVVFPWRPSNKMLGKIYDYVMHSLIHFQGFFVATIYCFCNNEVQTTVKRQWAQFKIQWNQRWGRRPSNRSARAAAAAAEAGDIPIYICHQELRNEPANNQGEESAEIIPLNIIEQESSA
How it was run: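 cAMP accumulation was measured by HTRF cAMP dynamic 2 read at 665/615 nm, 1 h at room temperature, with results scaled between vehicle and positive control. Before detection, COS7-human CTR stable cells were stimulated 30 min at 37 °C with compound (4-fold dilutions) in IBMX-containing HBSS/HEPES/casein buffer.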

T1 sequence (O60896 24-148, one chain of several): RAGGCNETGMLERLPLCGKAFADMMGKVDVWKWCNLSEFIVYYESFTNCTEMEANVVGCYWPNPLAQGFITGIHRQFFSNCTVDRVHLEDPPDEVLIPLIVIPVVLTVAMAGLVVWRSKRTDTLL

| SMILES | EC50 [1] [nM] | EC50 [2] [nM] |
| --- | --- | --- |
| COc1c(F)c(F)cc2c1CC[C@H]2Nc1nccc2cc(-c3c4c(nc(CCc5ccc(F)cc5)c3-c3n[nH]c(=O)o3)[C@@H]3CCCN3C4=O)sc12 [Compound 192, 5-((S)-4-(7-(((R)-5,6-difluoro-4-methoxy-2,3-dihydro-1H-inden-1-yl)amino)thieno[2,3-c]pyridin-2-yl)-2-(4-fluorophenethyl)-5-oxo-7,8,9,9a-tetrahydro-5H-pyrido[2,3-a]pyrrolizin-3-yl)-1,3,4-oxadiazol-2(3H)-one] | 0.8 | 0.00532 |
| COc1c(F)ccc2c1CC[C@H]2Nc1ncnc2cc(-c3c4c(nc(CCc5ccc(F)cc5)c3-c3n[nH]c(=O)o3)C35CC(CN3C4=O)C5)sc12 [Compound 268, (R)-5-(4-(4-((5-fluoro-4-methoxy-2,3-dihydro-1H-inden-1-yl)amino)thieno[3,2-d]pyrimidin-6-yl)-2-(4-fluorophenethyl)-5-oxo-8,9-dihydro-5H,7H-8,9a-methanopyrido[2,3-a]pyrrolizin-3-yl)-1,3,4-oxadiazol-2(3H)-one] | 1.07 | 0.077 |
| COc1c(F)ccc2c1CC(F)(F)[C@H]2Nc1nc(C)cc2cc(-c3c4c(nc(CCc5ccc(F)cc5)c3-c3n[nH]c(=O)o3)[C@@H]3CCCN3C4=O)sc12 [Compound 303, 5-((S)-2-(4-fluorophenethyl)-4-(5-methyl-7-(((S)-2,2,5-trifluoro-4-methoxy-2,3-dihydro-1H-inden-1-yl)amino)thieno[2,3-c]pyridin-2-yl)-5-oxo-7,8,9,9a-tetrahydro-5H-pyrido[2,3-a]pyrrolizin-3-yl)-1,3,4-oxadiazol-2(3H)-one] | 0.695 | 0.0337 |
| COc1c(F)ccc2c1C[C@@H](F)[C@H]2Nc1nccc2cc(-c3c4c(nc(CCc5ccc(F)cc5)c3-c3n[nH]c(=O)o3)C35CC(CN3C4=O)C5)sc12 [Compound 291, 5-(4-(7-(((1S,2R)-2,5-difluoro-4-methoxy-2,3-dihydro-1H-inden-1-yl)amino)thieno[2,3-c]pyridin-2-yl)-2-(4-fluorophenethyl)-5-oxo-5,7,8,9-tetrahydro-8,9a-methanopyrido[2,3-a]pyrrolizin-3-yl)-1,3,4-oxadiazol-2(3H)-one] | 0.363 | 0.0138 |

Further compounds by falling EC50 [1], results first:

| EC50 [1] [nM] | EC50 [2] [nM] | SMILES |
| --- | --- | --- |
| 143 | 4.36 | COc1cccc2c1CC[C@H]2Nc1nccc2cc(-c3c4c(nc(CCc5ccc(C6CC6)cc5)c3-c3noc(=O)[nH]3)[C@@H]3CCCN3C4=O)sc12 [Compound 127, 3-((S)-2-(4-cyclopropylphenethyl)-4-(7-(((R)-4-methoxy-2,3-dihydro-1H-inden-1-yl)amino)thieno[2,3-c]pyridin-2-yl)-5-oxo-7,8,9,9a-tetrahydro-5H-pyrido[2,3-a]pyrrolizin-3-yl)-1,2,4-oxadiazol-5(4H)-one] |
| 12.8 | 0.33 | COc1c(Cl)cc2c(c1F)CC[C@H]2Nc1nccc2cc(-c3c4c(nc(CCc5ccc(F)cc5)c3-c3n[nH]c(=O)o3)[C@@H]3CCCN3C4=O)sc12 [Compound 256, 5-[(9aS)-4-[7-[[(1R)-6-chloro-4-fluoro-5-methoxy-indan-1-yl]amino]thieno[2,3-c]pyridin-2-yl]-2-[2-(4-fluorophenyl)ethyl]-5-oxo-7,8,9,9a-tetrahydropyrido[2,3-a]pyrrolizin-3-yl]-3H-1,3,4-oxadiazol-2-one] |
| 1.57 | 0.0602 | COc1c(F)ccc2c1CC[C@H]2Nc1nccc2cc(-c3c4c(nc(CCc5ccccc5F)c3-c3n[nH]c(=O)o3)C35CC(CN3C4=O)C5)sc12 [Compound 276, (R)-5-(4-(7-((5-fluoro-4-methoxy-2,3-dihydro-1H-inden-1-yl)amino)thieno[2,3-c]pyridin-2-yl)-2-(2-fluorophenethyl)-5-oxo-8,9-dihydro-5H,7H-8,9a-methanopyrido[2,3-a]pyrrolizin-3-yl)-1,3,4-oxadiazol-2(3H)-one] |
